From patent US7125568B2, “Lipophilic drug compositions” (priority 2001, dated 2006)
Read-outs that look alike come from different tables or passages of the source.

Experiments:
[1] = Degradation of aspirin in sodium carbonate, monitored by UV spectrophotometry; assay type: physicochemical; details: 0.1 M NaCO3 (10 pH), at 27 hours
From the text: In this example, aspirin is encapsulated in Sterotex® using the method described in Example 1. In aspirin, the deacetylated species is salicylic acid, which has a characteristic absorbency at 296 nm. The comparison of drug stability of Sterotex®/aspirin vs. aspirin was made in 0.1 M NaCO3 (10 pH) and the kinetics of degradation monitored by UV spectrophotometry. In FIG. 1, the appearance of salicylic acid is compared between aspirin encapsulated in Sterotex® and free aspirin. Aspirin slowly dissolves and is hydrolyzed to salicylic acid in a basic solution of 0.1 M NaCO3. At 27 hours, it is roughly 38% hydrolyzed. By contrast, aspirin encapsulated in Sterotex® is quite stable even at 27 hours and is only less than 2% degraded. This example illustrates the increase in drug stability provided by encapsulation in a lipid component.

coccidia = assay: Treatment of coccidiosis in chickens (fecal float oocyst levels)
Procedure: An initial trial involving 120 broilers (4 week old chickens) for the treatment of coccidiosis was made. Three treatment groups were used: (1) control, (2) low dose of 10 mg BA 3540/kg treatment, and (3) high dose at 50 mg BA 3540/kg treatment. The broilers were separated into six pens, […]. Fecal collection was begun to check for the presence of coccidian. The treatments were then assigned and the trial started. The treatment was added to a mash diet and fed adlib for seven days. At the end of the treatment period, new fecal collections for each treatment group were analyzed for the presence of coccidia.
Two fecal samples were taken from each pen and a fecal float was done to check oocyst levels. Oocyst levels are considered to determine the adult coccidian present in an intestinal tract.
A confirmatory trial was conducted with 10 seven-week-old Arbor Acres broilers. The birds were divided into two groups: control and 50 mg/kg treatment groups. The two set of cages were off the floor to prevent any potential contamination. The trial was monitored for four days and fecal floats for oocyte population were used to determine efficacy. Two fecal samples were collected from each cage.

HSV = assay: Plaque reduction assay, HSV in human embryonic fibroblast cells; assay type: cell-based, Herpes simplex virus
Procedure: (§1) The drugs, NTZ and BA 3540, were made soluble at 10 mg/mL in dimethylsulfoxide and then diluted in media to 50 μg/mL, 5 μg/mL, 2.5 μg/mL, and 1.5 μg/mL. Human embryonic fibroblast cells were propagated in minimal essential media and supplemented with 10% fetal bovine serum. Cells were pre-treated with the two drugs at the 4 specified concentrations plus a zero control for 45 minutes. The plates were each infected with 300–400 viral particles of either HSV or HCMV for 1 hour. Drug free media was added to each plate and incubation continued for 3 days to propagate virus. At the end of three days, the supernatant from each of the plates was removed for plaque reduction assays.

[2] = Solubility and heat stability of the bulk drug; assay type: physicochemical
Procedure: In a typical example, an equimolar ratio (approximately 2.5 moles) of lauric acid is activated with dicyclohexyl-carbodiimide (DCC) in 500 mL of dimethylformamide. After 90 minutes, the insoluble dicyclohexylurea formed is removed by vacuum filtration. The activated lauric acid solution is then added in approximately 1:1 ratio of the nucleophile 2-amino-5 nitro-thiazole in 600 mL of methylene chloride, 60 ml of pyridine and made up to 3.5 liters with dimethylformamide. The reaction is allowed to proceed for 40–48 hours with shaking, stirring or heating at 50° C. The product formed is obtained and purified by precipitation and recrystallization in methanol and or acetone. This synthesis scheme is depicted as 2-lauramide-5-nitrothioazole and is a nice needle shaped microcrystal. […] To promote complete dissolution, the drug has to be lightly heated.

Sarcocystis neurona = tested on: Sarcocystis neurona
From the text: The new drug was encapsulated as in Example 4 with 27% palmitic acid and 73% of Sterotex®.
Case 1: “Chris” is a 7 year old quarter horse gelding. […] Chris was given daily oral treatment of the new paste formulation containing lipid encapsulated 2-lauramide-5-nitrothiazole for a total of 28 dosings with 25 gm/syringe. (On day 22 to 28, the drug was not given and then resumed medication in the following week).
Case 2: “Brooke” is an 18-year-old thoroughbred mare. […] Again the horse was given daily oral treatments with the current dose of a typical 1000 lb horse at about 50 mg/Kg body weigh or 25 gm/day.
Case 3: “Foundation Man” is a 22-year-old Appaloosa gelding. […] Foundation Man was given daily oral treatments with the same amount of medication for 28 days.

HCMV = assay: Plaque reduction assay, HCMV in human embryonic fibroblast cells; assay type: cell-based, Human Cytomalovirus
Procedure: as §1

fungal growth = assay: Topical treatment of yellow fungal toes; assay type: in vivo, patients; details: 3% weight percent gel, 5 consecutive days then weekly for 4 weeks, after two weeks
Procedure: In the present study, patients suffering from yellow fungal toes were treated with a 3% weight percent BA3540 in a gel formulation (gel comprises propylene glycol and 0.8% Carbopol® Gel) for 5 consecutive days by topical application of the gel formulation on the surrounding nail cuticle area, followed by weekly treatment with the gel formulation for the next 4 weeks. The thickening of the nail caused by fungal growth disappeared after two weeks, and several months later a healthy nail began to appear behind the thick nail.

[3] = cited from earlier work
[4] = free form; cited from earlier work
[5] = Degradation of acetylbenzamide nitrothiazole in 0.1 M NaCO3 (optical density); assay type: physicochemical; details: 0.1 M NaCO3, at 3 hours
From the text: (§2) Acetylbenzamide nitrothiazole, otherwise known as NTZ, is an antibiotic drug useful as a treatment for protozoan parasites. […] Acetylbenzamide nitrothiazole encapsulated by Sterotex® as described in Example 1 is hydrophobic and remains afloat on the water surface.
The kinetic of degradation of acetylbenzamnide nitrothiazole in 0.1 M NaCO3 is similar to the aspirin curve of FIG. 1. […] 1, while the free drug has an optical density of 1.9. This example also illustrates the stabilizing effect of lipid encapsulation.

[6] = Solubility and stability in water; assay type: physicochemical
From the text: as §2

Q: For `CC(=O)Oc1ccccc1C(=O)O` [aspirin], which “hydrolyzed to salicylic acid (degraded)” value [1] is on record?
A: The value was “roughly 38%”.

Q: Which results are given for `CCCCCCCCCCCC(=O)Nc1ncc([N+](=O)[O-])s1` [BA 3540, 2-lauramide-5-nitrothiazole]?
A: mortality (coccidia; broilers, 10 and 50 mg/kg in diet): no mortality; oocytes in fecal samples (coccidia; confirmatory trial, 50 mg/kg, four days, seven-week-old broilers): no visible oocytes; samples with detectable oocyst (coccidia; high dose group 50 mg/kg in mash diet, initial trial): 1 of 4; amount of oocyst (coccidia; low treatment group 10 mg/kg in mash diet, initial trial): about the same as the control group; therapeutic range (HSV): 5 to 10 µg/mL; plaques (HSV; 1.5 μg/mL, control 110 plaques): 90; solubility in methanol ([2]; bulk drug): sparingly soluble; solubility in methylene chloride and dimethylforamide ([2]; bulk drug): more soluble; solubility in water ([2]; bulk drug): insoluble; stability on heating in organic solvents ([2]; methanol, acetone, methylene chloride, dimethylforamide at 60–80° C.): no appreciable detriment; EPM grade after treatment (Sarcocystis neurona; Case 1 Chris, from Grade 3, lipid encapsulated paste, oral daily, 28 dosings, 25 gm/syringe): 0/1; EPM grade after treatment (Sarcocystis neurona; Case 2 Brooke, started at Grade 2, day 29, about 50 mg/Kg or 25 gm/day oral): 2 grade; EPM grade after treatment (Sarcocystis neurona; Case 3 Foundation Man, from Grade 2/3, 28 day oral treatment): 0 Grade; recovery from EPM (Sarcocystis neurona; all three horses, owners' reports, day 84): fully recovered; side effects (Sarcocystis neurona; in vivo, po): no side effects; projected therapeutic range (HCMV): 1.5 to 2.5 µg/mL; plaques (HCMV; 1.5 μg/mL, controls 300 plaques): 3; plaques (HCMV; 2.5 μg/mL, controls 300 plaques): 1; plaques (HCMV; higher drug concentrations (5 and 50 μg/mL)): none; thickening of the nail caused by fungal growth (fungal growth): disappeared

Q: For `CC(=O)Oc1ccccc1C(=O)Nc1ncc([N+](=O)[O-])s1` [NTZ, Nitazoxanide], which “expiry of bulk drug” value [3] is on record?
A: Its value is “two”.

Q: And the “adverse effects in horses” value [4]?
A: The value was “causes anorexia, depression and diathermia or loose stool”.

Q: What about the plaques (HCMV; all four drug concentrations (1.5, 2.5, 5, 50 μg/mL), control 310 plaques) of the same molecule?
A: The plaques was “no viral plaques”.

Q: And the optical density [5]?
A: Its optical density is 1.9.

Q: What about the stability in water ([6]; standing in water, room temperature) of the same molecule?
A: The stability in water was “converted to the deacetylated counterpart”.

Q: What about the solubility in water ([6]; water) of the same molecule?
A: The solubility in water was “sparingly soluble”.
